# Test system: Listeria innocua 33090
# Assay: colony overlay assay of peptide-secreting E. coli clones (library screening and re-test)
# Format: cell-based
# Design: key: higher activity group (H); equal activity group (E); lower activity group (L)
# Conditions: library screening; selected colonies pooled by zone size; peptides identified by 454 sequencing, full-length sequences with minimum 20 reads
# Description: For the in vivo production of AMPs, we have employed an E. coli expression system that relies on periplasmic-expression of recombinant peptides in a host cell that lacks the lpo membrane protein, thus releasing the peptides present in the periplasmic space outside the cells. When the producer cells are grown into colonies on a solid substrate, it leads to accumulation of the recombinant peptides around the colony and allows for easy library screening. The screening assay used in this study was a modified version of the standard agar diffusion method as previously described. Library-transformed E. coli colonies are overlaid with a tester strain and incubated overnight to allow for peptide expression and tester strain growth. Next day, the plates are inspected for the formation of clear growth inhibition zones around E. coli colonies, which is an indication of active AMP production by the host colony.
# For the construction of Pln-423 mutant library in E. coli, the expression system that consists of a periplasmic-leaky E. coli strain JE5505 and the expression plasmid pFLAG-CTS was employed for direct screening of peptide activities. It should be noted here that this plasmid contains ompA secretion signal sequence and cleavage of this sequence results in a serine residue at the N-terminal of all mature peptides. A total of 1.0×10^5 colonies, approximately 8-fold coverage of the library, were screened against Listeria innocua 33090 in five separate screening experiments. L. innocua was previously deemed as a suitable indicator for pathogenic L. monocytogenes displaying similar bacteriocin sensitivity, therefore it was used as a surrogate strain throughout this study. The selection process involved two criteria; 1) the size of the each inhibition zone was compared to that of wild-type Pln-423 as a correlation to anti-listerial activity level, 2) when several colonies formed inhibition zones that are very similar in size and character, only a few from each group were selected. The colonies were pooled into three groups based on their activities, giving 43 clones in a higher activity group (H), 81 clones in an equal activity group (E), and 241 clones in a lower activity group (L). Their plasmids were extracted from each activity group and analyzed by both Sanger and 454 high-throughput sequencing to identify peptide sequences.
# These clones were also re-tested by colony overlay assay to compare their activities to wild-type Pln-423 based on the size of the inhibition zone around each clone (Figure 2-A). Based on this assay, all ten plantaricin mutants formed larger inhibition zones (10.3±0.5 to 11.4±0.3 mm zone diameter) compared to wild-type Pln-423 (6.2±0.2 mm) against L. innocua 33090. Out of those ten, three clones have a single mutation and […] clones have two mutations and the remaining single clone has three mutations. […] Positions like Ser23, Ser27, His28, and Lys36 were commonly mutated with similar amino acids indicating their potential role on higher peptide activity.
# The screening method used in this study was a modified version of the standard colony overlay method as previously described. All the chemicals and growth media supplements were obtained from either Sigma-Aldrich or Fisher Scientific unless otherwise stated. Transformed E. coli JE5505 cells were diluted to 3000–5000 cfu (determined empirically prior to screening by plating serial dilutions of E. coli suspensions of a known absorbance and counting the colonies after incubation) in 25 ml LB soft agar (0.8%, 45°C) per screening plate and poured into 150 mm petri dishes. Once the media was solidified, they were overlaid with 10 ml LB soft agar (45°C) and incubated at 37°C for 24 h for host-colony formation. Next day, these plates were re-overlaid with 10 ml TSB soft agar containing 1 mM IPTG and the indicator strain Listeria innocua ATCC 33090 (diluted to OD600 = 0.03). […]
row,Substance,activity group by size of inhibition zone compared to wild-type Pln-423
1,KYYGNGVTCGKHSCSVNWGQAFSCSVSHLANFGMGEC* [Pep-2_10826],H
2,KYYGNGVTCGKHSCSVNWGQAFSCSVSHLANFGMGYC* [Pep-2_10827],H
3,KYYGNGVTCGKHSCSVNWGQAFSCSVSHLANFGRGKC* [Pep-1_97],L
4,KYYGNGVTCGKHSCSVNWGQAFSCSVSHLANFGSGKC* [Pep-1_99],E
5,KYYGNGVTCGKHSCSVNWGQAFSCSVSHLANFGWGKC* [Pep-1_102],L
6,KYYGNGVTCGKHSCSVNWGQAFSCSVSHLANFSHGKC* [GROUP L-UM-18],L
7,KYYGNGVTCGKHSCSVNWGQAFSCSVSHLANGGHGKC* [Pep-1_89],L
8,KYYGNGVTCGKHSCSVNWGQAFSCSVSHLANIGHGEC* [Pep-2_11890],L
9,KYYGNGVTCGKHSCSVNWGQAFSCSVSHLANMGHGKC* [Pep-1_88],H
10,KYYGNGVTCGKHSCSVNWGQAFSCSVSHLAWFGHGHC* [Pep-2_9097],L
11,KYYGNGVTCGKHSCSVNWGQAFSCSVSHLAWFGHGKC* [Pep-1_84],L
12,KYYGNGVTCGKHSCSVNWGQAFSCSVSHMANFGHGKC* [Pep-1_70],L
13,KYYGNGVTCGKHSCSVNWGQAFSCSVSHWANFGHGKC* [GROUP L-UM-32],L
14,KYYGNGVTCGKHSCSVNWGQAFSCSVSILANFGHGKC* [GROUP L-UM-6],L
15,KYYGNGVTCGKHSCSVNWGQAFSCSVSKLAHFGHGKC* [Pep-2_8515],L
16,KYYGNGVTCGKHSCSVNWGQAFSCSVSKMANFGHGKC* [Pep-2_7543],L
17,KYYGNGVTCGKHSCSVNWGQAFSCSVSNLANFGHGCC* [Pep-2_6834],L
18,KYYGNGVTCGKHSCSVNWGQAFSCSVSNLANFGHGKC* [Pep-1_63],E
19,KYYGNGVTCGKHSCSVNWGQAFSCSVSNLANFGHGRC* [Pep-2_6829],L
20,KYYGNGVTCGKHSCSVNWGQAFSCSVSNLANFGRGKC* [Pep-2_6817],L
21,KYYGNGVTCGKHSCSVNWGQAFSCSVSRLAAFGHGKC* [Pep-2_6587],L

row,Substance,activity group by size of inhibition zone compared to wild-type Pln-423
1,KYYGNGVTCGKHSCSVNWGQAFSCSVSRLANFGEGKC* [Pep-2_6602],H
2,KYYGNGVTCGKHSCSVNWGQAFSCSVSRLANFGHGKC* [Pep-1_61],E and H
3,KYYGNGVTCGKHSCSVNWGQAFSCSVSRVANFGHGKC* [Pep-2_6574],L
4,KYYGNGVTCGKHSCSVNWGQAFSCSVSSLANFGHGKC* [GROUP E-UM-3],E
5,KYYGNGVTCGKHSCSVNWGQAFSCSVSSLANFGHGLC* [Pep-2_12081],E
6,KYYGNGVTCGKHSCSVNWGQAFSCSVSVLANFGHGKC* [Pep-1_64],E
7,KYYGNGVTCGKHSCSVNWGQAFSCSVSVLANFGHGNC* [Pep-2_6939],L
8,KYYGNGVTCGKHSCSVNWGQAFSCSVSVLANFGHNKC* [Pep-2_6933],L
9,KYYGNGVTCGKHSCSVNWGQAFSCSVSVLANFGNGKC* [Pep-2_6927],H
10,KYYGNGVTCGKHSCSVNWGQAFSCSVSWLANFGHGKC* [GROUP L-UM-12],L
11,KYYGNGVTCGKHSCSVNWGQAFSCSVSWLANFGSGKC* [Pep-2_10680],L
12,KYYGNGVTCGKHSCSVNWGQAFSCSVTHIANFGHGKC* [Pep-2_6142],L
13,KYYGNGVTCGKHSCSVNWGQAFSCSVTHLANFGHAKC* [Pep-2_6179],E
14,KYYGNGVTCGKHSCSVNWGQAFSCSVTHLANFGHGKC* [Pep-1_57],L and E
15,KYYGNGVTCGKHSCSVNWGQAFSCSVTHLANFGHGRC* [Pep-2_6181],E
16,KYYGNGVTCGKHSCSVNWGQAFSCSVTHLANFGLGKC* [Pep-2_6172],E
17,KYYGNGVTCGKHSCSVNWGQAFSCSVTHLASFGHGKC* [Pep-2_6153],L
18,KYYGNGVTCGKHSCSVNWGQAFSCSVTILANFGHGKC* [Pep-2_6136],L
19,KYYGNGVTCGKHSCSVNWGQAFSCSVVHIANFGHGKC* [Pep-2_6250],H
20,KYYGNGVTCGKHSCSVNWGQAFSCSVVHLANFGHGKC* [Pep-1_58],L and E
21,KYYGNGVTCGKHSCSVNWGQAFSCSVVHLVNFGHGKC* [Pep-2_6256],L

row,Substance,activity group by size of inhibition zone compared to wild-type Pln-423
1,KYYGNGVTCGKHSCSVNWGQAFSCSWSHLANYGHGKC* [Pep-2_5835],L
2,KYYGNGVTCGKHSCSVNWGQAFSCTVEHLANFGHGKC* [Pep-2_6015],E and H
3,KYYGNGVTCGKHSCSVNWGQAFSCTVSHLANFGHGKC* [GROUP L-UM-28],L
4,KYYGNGVTCGKHSCSVNWGQAFSCTVSNLANFGHGKC* [Pep-2_6771],L and E and H
5,KYYGNGVTCGKHSCSVNWGQAFSCVVRHLANFGHGKC* [Pep-2_4939],L
6,KYYGNGVTCGKHSCSVNWGQAFSCVVSHIANFGHGKC* [Pep-2_4954],L
7,KYYGNGVTCGKHSCSVNWGQAFSCVVSHLANFGHGKC* [Pep-1_46],L
8,KYYGNGVTCGKHSCSVNWGQAFSCVVSHLANFGHGTC* [Pep-2_4995],L
9,KYYGNGVTCGKHSCSVNWGQAFSCVWSHLANFGHGKC* [Pep-2_4938],L
10,KYYGNGVTCGKHSCSVNWGQAFSCWVSHLANFGHGKC* [GROUP L-UM-15],L
11,KYYGNGVTCGKHSCSVNWGQAFSCYASHLANFGHGKC* [Pep-2_5691],L
12,KYYGNGVTCGKHSCSVNWGQAFSCYMSHLANFGHGAC* [GROUP L-UM-9],L
13,KYYGNGVTCGKHSCSVNWGQAFVCSNSHLANFGHGKC* [Pep-2_3639],L
14,KYYGNGVTCGKHSCSVNWGQAFVCSVDHLANFGHGKC* [Pep-2_3644],E
15,KYYGNGVTCGKHSCSVNWGQAFVCSVRHLANFGHGKC* [Pep-2_3643],L
16,KYYGNGVTCGKHSCSVNWGQAFVCSVSHLANFGHGKC* [Pep-1_34],L and E
17,KYYGNGVTCGKHSCSVNWGQAFVCSVSHLANFGHGTC* [Pep-2_3699],E and H
18,KYYGNGVTCGKHSCSVNWGQAFWCSVSHLANFGHGKC* [Pep-1_36],L
19,KYYGNGVTCGKHSCSVNWGQAFWCSVSKLANFGHGKC* [Pep-2_3865],L
